Data on 16 molecules can be found in US9518022B2, “Anti-HIV compounds” (priority 2014, dated 2016).

Where two headings read alike, the source gives them in different places.

The nature of data set [1]: Cytotoxicity assay (AlamarBlue) in mock infected MT-2 cells. The format is cell-based. The note with it: human. An outline of the steps:
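MT-2 cells at 2×10^4 cells/well, mock-infected, treated with 3-fold serial compound dilutions for 96 h at 37 °C. AlamarBlue added for 3 h, fluorescence read at 545/590 nm; % inhibition versus solvent control fitted to a 4-parameter logistic to give CC50.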

Data set [2] concerns HIV-1 NL4-3 viral clone engineered to express Renilla luciferase in place of Nef. The experiment in a line: microbe, parasite or virus in culture. The format is cell-based. The following applies: Human immunodeficiency virus 1, NL43, MT2, 96 h. The method, then:
The present assay was used to screen candidate antiviral compounds by quantification of virus spread and production over several rounds of infection in vitro. MT-2, a HIV-1 permissive human T-cell line, was seeded in microtiter plates and was simultaneously treated with serially diluted compound and inoculated with a HIV-1 NL4-3 viral clone engineered to express Renilla luciferase in place of Nef. Following treatment, the culture was incubated for 96 hours. After the incubation, media was collected and used to estimate relative infectivity on the indicator cell line, TZM-bl. Additionally, viral spread was quantified by measuring luciferase activity via a commercially available luciferase substrate. In parallel, MT-2 cells were seeded and inoculated with mock virus in the presence of serially diluted compound. Compound toxicity was quantified 96 hours after treatment with AlamarBlue.
MT-2 (NIH Aids reagent program 237) cells were grown and maintained in an incubator at 37° C. with 5% CO2 using a basal medium of RPMI-1640 supplemented with 10% FBS. Cells were seeded in 100 μl at 2×10^4 cells/well in white walled 96-well microtiter plates. Candidate compounds were 3-fold serially diluted in the appropriate solvent. Solvent without compound was used as a no drug reference. Cells were inoculated at a multiplicity of 0.027 with an HIV-1 NL4-3 virus stock engineered to express Renilla luciferase in place of Nef. Diluted virus stock was first added to serially diluted compound. Compound and virus were delivered to cells in an equal volume (100 μl) and treated cultures were returned to the incubator for 96 hours. In parallel, plates for cytotoxicity estimates were prepared in the same way except cells were plated in clear walled 96-well microtiter plates and were mock infected.
At 96 hours post infection, 100 μl virus containing culture supernatant was collected from the treated and infected cultures and serially diluted in DMEM supplemented with 10% FBS, 1% sodium pyruvate, and 20 μg/ml DEAE dextran. One day prior, TZM-bl (ATCC PTA-5659) were cultured in basal medium of DMEM supplemented with 10% FBS and 1% sodium pyruvate and seeded at 7.5×10^3 cells/well in black walled 96-well microtiter plates. Diluted virus containing culture supernatant was transferred to TZM-bl cultures and incubated for 48 hours at 37° C. with 5% CO2. Infected TZM-bl cultures were fixed for 5 minutes with a 1% formaldehyde/0.2% gluteraldehyde/PBS solution then washed three times with PBS. Fixed cultures were incubated at 37° C. for 25 minutes with a 200 μg/ml MUG (4-Methylumbelliferyl β-D-[…])/DMEM solution. The reaction was stopped with an equal volume of 1M sodium carbonate and read at 360, 449 nm on fluorescence plate reader (Biotek).
At 96 hours post infection, 100 μl of culture supernatant was removed from the treated and infected cultures and EnduRen live cell substrate (Promega) was added at a final concentration 1.3 μg/ml. Cells were incubated for 1.5 hours at 37° C. with 5% CO2 then read on a luminescence plate reader (Biotek).
For all assays, data was imported into Accelrys Assay Explorer 3.3. In Assay Explorer, % inhibition (antiviral or cytotoxicity) was calculated using the solvent control as a reference by the following equation: 1−(SignalCompound/SignalReference). The % Inhibition and compound concentration data was fitted using the following 4-parameter logistic model (Assay Explorer model 42):
[formula] where X is compound concentration, Y is % inhibition, D is the maximum % Inhibition (constrained to 100%), C is IC50 value or inflection point, B is the hill slope, and A is the minimum % inhibition (constrained to 0%). The IC50 value is reported as the EC50 or CC50 depending on the assay endpoint. EC50 represents the effective concentration at which virus replication is inhibited by 50 percent. CC50 represents the concentration that results in the death of 50 percent of the host cells. […]

Where [3] appears, read: mock infected MT-2 cells, 96 hours, AlamarBlue, read-out: CC50.

Broadly, the CC50 is the concentration giving 50% cytotoxicity. The term EC50 denotes the concentration needed to bring the measured effect to its halfway point. Read a high EC50 as lower potency in that assay.

Consider `COc1cc2c(cc1OCc1ccccc1)CCNC2/C=C/c1ccc2cn[nH]c2c1` (stereo not shown) [BT, 6-(benzyloxy)-1-[(E)-2-(1H-indazol-6-yl)ethenyl]-7-methoxy-1,2,3,4-tetrahydroisoquinoline], for which, in data set [1], the CC50 at 96 h was found to be 7.98 µM. Also, the EC50 in data set [2] stood at 0.613 µM.

The molecule `COc1cc2c(cc1OCc1ccccc1)CCNC2/C=C/c1cccc2c1ccn2C(=O)OC(C)(C)C` (stereo not shown) [CK, tert-butyl 4-[(E)-2-[6-(benzyloxy)-7-methoxy-1,2,3,4-tetrahydroisoquinolin-1-yl]ethenyl]-1H-indole-1-carboxylate] showed a CC50 at 96 h in data set [1] of 5.99 µM. For the same molecule, in data set [2], the response was half-maximal at 0.805 µM (EC50).

On to `COc1cc2c(cc1OCc1ccccc1)CCNC2/C=C/c1cccc2[nH]ccc12` (stereo not shown) [CL, 6-(benzyloxy)-1-[(E)-2-(1H-indol-4-yl)ethenyl]-7-methoxy-1,2,3,4-tetrahydroisoquinoline], for which the CC50 at 96 h in data set [1] was 7.2 µM. Besides, the EC50 in data set [2] amounted to 1.5 µM.

For the molecule `COc1cc2c(cc1OCc1ccccc1)CCNC2/C=C/c1ccc2c(ccn2C(=O)OC(C)(C)C)c1` (stereo not shown) [CM, tert-butyl 5-[(E)-2-[6-(benzyloxy)-7-methoxy-1,2,3,4-tetrahydroisoquinolin-1-yl]ethenyl]-1H-indole-1-carboxylate], the midpoint of cytotoxicity in data set [1], the CC50 at 96 h, lay at 10 µM. Further, a half-maximal effect in data set [2] (EC50) was put at 1.3 µM.

For `COc1cc2c(cc1OCc1ccccc1)CCNC2/C=C/c1cccc2ccn(C(=O)OC(C)(C)C)c12` (stereo not shown) [CN, tert-butyl 7-[(E)-2-[6-(benzyloxy)-7-methoxy-1,2,3,4-tetrahydroisoquinolin-1-yl]ethenyl]-1H-indole-1-carboxylate], it took 19.6 µM to reach half-maximal cytotoxicity in data set [1] (CC50 at 96 h). The molecule also came in with an EC50 in data set [2] of 1.83 µM.

Consider `COc1cc2c(cc1OCc1ccccc1)CCNC2/C=C/c1ccc(F)c(O)c1F` (stereo not shown) [CO, 3-[(E)-2-[6-(benzyloxy)-7-methoxy-1,2,3,4-tetrahydroisoquinolin-1-yl]ethenyl]-2,6-difluorophenol], for which, in data set [1], the CC50 at 96 h amounted to 10 µM. Further, in data set [2], the EC50 was 6 µM.

Regarding `COc1cc2c(cc1OCc1ccccc1)CCNC2/C=C/c1cccc(S(C)(=O)=O)c1` (stereo not shown) [CP, 6-(benzyloxy)-1-[(E)-2-(3-methanesulfonylphenyl)ethenyl]-7-methoxy-1,2,3,4-tetrahydroisoquinoline], half-maximal cytotoxicity in data set [1] (CC50 at 96 h) was put at 20.6 µM. Moreover, a half-maximal effect in data set [2] (EC50) was put at 3.07 µM.

On to `COc1cc2c(cc1/C=C/C1NCCc3cc(OCc4ccccc4)c(OC)cc31)OCCO2` (stereo not shown) [CQ, 6-(benzyloxy)-7-methoxy-1-[(E)-2-(7-methoxy-2,3-dihydro-1,4-benzodioxin-6-yl)ethenyl]-1,2,3,4-tetrahydroisoquinoline], for which half-maximal cytotoxicity in data set [1] (CC50 at 96 h) was put at 1.4 µM. The EC50 in data set [2] stood at 0.06 µM.

In data set [1], `COc1cc2c(cc1/C=C/C1NCCc3cc(OCc4ccccc4)c(OC)cc31)OCO2` (stereo not shown) [CR, 6-(benzyloxy)-7-methoxy-1-[(E)-2-(6-methoxy-2H-1,3-benzodioxol-5-yl)ethenyl]-1,2,3,4-tetrahydroisoquinoline] yielded a CC50 at 96 h of 3.3 µM. Moreover, the EC50 in data set [2] stood at 0.12 µM.

As to `COc1cc2c(cc1OCc1ccccc1)CCNC2/C=C/c1ccc2ccn(C(=O)OC(C)(C)C)c2c1` (stereo not shown) [CS, tert-butyl 6-[(E)-2-[6-(benzyloxy)-7-methoxy-1,2,3,4-tetrahydroisoquinolin-1-yl]ethenyl]-1H-indole-1-carboxylate], the midpoint of cytotoxicity in data set [1], the CC50 at 96 h, lay at 6.15 µM. Also, in data set [2], the concentration giving a half-maximal response (EC50) was found to be 0.912 µM.

As for `COc1cc(/C=C/C2NCCc3cc(OCc4ccccc4)c(OC)cc32)c(N(C)C)cc1OC` (stereo not shown) [CT, 2-[(E)-2-[6-(benzyloxy)-7-methoxy-1,2,3,4-tetrahydroisoquinolin-1-yl]ethenyl]-4,5-dimethoxy-N,N-dimethylaniline], in data set [1], the midpoint of cytotoxicity, the CC50 at 96 h, lay at 8.9 µM. Besides, the EC50 in data set [2] came out at 0.2 µM.

The molecule `COc1cc2c(cc1OCc1ccccc1)CCNC2/C=C/c1cccnc1N(C)C` (stereo not shown) [CU, 3-[(E)-2-[6-(benzyloxy)-7-methoxy-1,2,3,4-tetrahydroisoquinolin-1-yl]ethenyl]-N,N-dimethylpyridin-2-amine] showed a CC50 at 96 h in data set [1] of 19.9 µM. The midpoint of the response in data set [2], the EC50, lay at 1.4 µM.

`COc1ccc(/C=C/C2c3cc(OC)c(OCc4ccccc4)cc3CCN2C)cc1OCc1ccccc1` (stereo not shown) [Example V, 6-benzyloxy-1-[(E)-2-(3-benzyloxy-4-methoxy-phenyl)vinyl]-7-methoxy-2-methyl-3,4-dihydro-1H-isoquinoline] had a CC50 at 96 h in data set [1] of 6.68 µM.

On to `COc1cc2c(cc1OCc1ccccc1)CCNC2/C=C/c1ccccc1C` (stereo not shown) [Example W, 6-benzyloxy-7-methoxy-1-[(E)-2-(o-tolyl)vinyl]-1,2,3,4-tetrahydroisoquinoline], for which the CC50 at 96 h in data set [1] (setting [3]) amounted to 4 µM.

For the molecule `COc1cc2c(cc1OCc1ccccc1)CCNC2/C=C/c1ccc(F)cc1C` (stereo not shown) [Example X, 6-benzyloxy-1-[(E)-2-(4-fluoro-2-methyl-phenyl)vinyl]-7-methoxy-1,2,3,4-tetrahydroisoquinoline], the CC50 at 96 h in data set [1] (setting [3]) came out at 5.3 µM.

Regarding `COc1cc(C)c(/C=C/C2c3cc(OC)c(OCc4ccccc4)cc3CCN2C(=O)OC(C)(C)C)cc1OCc1ccccc1` (stereo not shown) [Example Y, tert-butyl 6-benzyloxy-1-[(E)-2-(5-benzyloxy-4-methoxy-2-methyl-phenyl)vinyl]-7-methoxy-3,4-dihydro-1H-isoquinoline-2-carboxylate], the CC50 at 96 h in data set [1] was found to be 28.1 µM.
